Measurements published in paper PMC9785542, “Discovery of 1-Benzhydryl-Piperazine-Based HDAC Inhibitors with Anti-Breast Cancer Activity: Synthesis, Molecular Modeling, In Vitro and In Vivo Biological Evaluation” (Pharmaceutics, 2022).
“And” between values parts separate entries of the source, which are not always exact repeats. Identical values can stand only once. Like-named read-outs stand apart in the source and are kept apart here.

Key:
[1] = target: Human recombinant HDAC-3/NcoR2 (Homo sapiens, UniProt O15379); experiment: HDAC-Glo I/II bioluminogenic enzyme assay, HDAC3; format: biochemical; parameters: purchased BPS Bioscience 50003; conditions: mean ± SD of three independent experiments; read-out: HDAC Inhibition, IC50 ± SD, HDAC3
[2] = tested on: MDA-MB-231 cells; experiment: Cell viability (MTT) assay, MDA-MB-231; format: cell-based, human; conditions: read-out: Cytotoxic activity IC50 ± SD, MDA-MB-231
Procedure: Human breast adenocarcinoma cells (MCF-7, ATCC® HTB-22™) and triple-negative breast cancer cells (MDA-MB-231, ATCC® HTB-26™) were obtained from the American Type Culture Collection (Rockville, MD, USA). Cells were maintained as a monolayer culture in DMEM:Ham’s 12 (1:1) medium (Sigma-Aldrich, St. Louis, MO, USA) supplemented with penicillin (192 U/mL), streptomycin (200 µg/mL), and 10% of heat-inactivated fetal calf serum (FCS). Cells were grown at 37 °C in 5% CO2 and humidified air atmosphere, by twice weekly subculture.
Cytotoxic activity of synthesized 1-benzhydryl-piperazine-based HDAC inhibitors was assessed on MDA-MB-231 and MCF-7 cells using an MTT assay. MDA-MB-231 (5 × 10^3 cells/well) and MCF-7 (5 × 10^3 cells/well) were treated with synthesized compounds in six different concentrations (100, 50, 25, 12.5, 6.25, and 3.13 μM), and each concentration was added in five replicates. MTT solution (3-(4,5-dimethylthiazol-2-yl)-2,5-diphenyltetrazolium bromide) (Sigma-Aldrich, St. Louis, USA) was added to each well (20 µL) after 48 h. After 4 h of incubation, 100 μL of 10% SDS was added in each well and incubated at 37 °C. On the next day, the absorbance at 570 nm was recorded. The ratio of absorbance (570 nm) values between treated and control cells multiplied by 100 was used to calculate cell survival (%). The concentration of synthesized HDAC inhibitors that reduced cell viability by 50% was defined as the IC50 value, and was compared to the vehicle control.

[3] = tested on: MDA-MB-231 tumor spheres; experiment: 3D tumor sphere model, MTT and imaging; format: cell-based, human; conditions: for tumor sphere viability: 50 µM, 72 h, formed spheres
Procedure: MDA-MB-231 cells were seeded at a cell density of 1000 c/w in 100 μL of DMEM containing 10% FCS in a low-attachment NunclonSphera 96-well ultra-low attachment plate (Thermo Scientific Nunc™, Rochester, NY, USA), to form multicellular tumor spheres, for 4 days. The formation and growth of tumor spheres were examined and imaged with an Olympus CKX53 microscope, using a 10× objective. MDA-MB-231 tumor spheres were treated by carefully adding 50 μL of the medium with fresh nutrient medium for control spheres or with compound-supplemented medium (50 μM) for treated spheres for another 72 h. The cytotoxicity of compounds toward the MDA-MB-231 tumor spheres was investigated by MTT assay.
The formation and growth of tumor spheroids were examined and imaged with an Olympus CKX53 microscope, using 4x objective. The cytotoxicity of compounds toward the MDA-MB-231 tumor spheroids was investigated by MTT assay.

[4] = target: T1, Human recombinant N-ter-GST-HDAC-6 (Homo sapiens, UniProt Q9UBN7); experiment: HDAC-Glo I/II bioluminogenic enzyme assay, HDAC6; format: biochemical; parameters: GST (N); purchased BPS Bioscience 50006; conditions: for % HDAC6 Inhibition at 5 μM / inhibition at 5 µM: mean ± standard error of triplicate; for IC50: mean ± SD of three independent experiments, read-out: HDAC Inhibition, IC50 ± SD, HDAC6; for Selectivity Ratio HDAC1/6 / Selectivity Ratio HDAC3/6 / Selectivity Ratio HDAC8/6: ratio of IC50 values
T1 sequence (Q9UBN7 1-1215): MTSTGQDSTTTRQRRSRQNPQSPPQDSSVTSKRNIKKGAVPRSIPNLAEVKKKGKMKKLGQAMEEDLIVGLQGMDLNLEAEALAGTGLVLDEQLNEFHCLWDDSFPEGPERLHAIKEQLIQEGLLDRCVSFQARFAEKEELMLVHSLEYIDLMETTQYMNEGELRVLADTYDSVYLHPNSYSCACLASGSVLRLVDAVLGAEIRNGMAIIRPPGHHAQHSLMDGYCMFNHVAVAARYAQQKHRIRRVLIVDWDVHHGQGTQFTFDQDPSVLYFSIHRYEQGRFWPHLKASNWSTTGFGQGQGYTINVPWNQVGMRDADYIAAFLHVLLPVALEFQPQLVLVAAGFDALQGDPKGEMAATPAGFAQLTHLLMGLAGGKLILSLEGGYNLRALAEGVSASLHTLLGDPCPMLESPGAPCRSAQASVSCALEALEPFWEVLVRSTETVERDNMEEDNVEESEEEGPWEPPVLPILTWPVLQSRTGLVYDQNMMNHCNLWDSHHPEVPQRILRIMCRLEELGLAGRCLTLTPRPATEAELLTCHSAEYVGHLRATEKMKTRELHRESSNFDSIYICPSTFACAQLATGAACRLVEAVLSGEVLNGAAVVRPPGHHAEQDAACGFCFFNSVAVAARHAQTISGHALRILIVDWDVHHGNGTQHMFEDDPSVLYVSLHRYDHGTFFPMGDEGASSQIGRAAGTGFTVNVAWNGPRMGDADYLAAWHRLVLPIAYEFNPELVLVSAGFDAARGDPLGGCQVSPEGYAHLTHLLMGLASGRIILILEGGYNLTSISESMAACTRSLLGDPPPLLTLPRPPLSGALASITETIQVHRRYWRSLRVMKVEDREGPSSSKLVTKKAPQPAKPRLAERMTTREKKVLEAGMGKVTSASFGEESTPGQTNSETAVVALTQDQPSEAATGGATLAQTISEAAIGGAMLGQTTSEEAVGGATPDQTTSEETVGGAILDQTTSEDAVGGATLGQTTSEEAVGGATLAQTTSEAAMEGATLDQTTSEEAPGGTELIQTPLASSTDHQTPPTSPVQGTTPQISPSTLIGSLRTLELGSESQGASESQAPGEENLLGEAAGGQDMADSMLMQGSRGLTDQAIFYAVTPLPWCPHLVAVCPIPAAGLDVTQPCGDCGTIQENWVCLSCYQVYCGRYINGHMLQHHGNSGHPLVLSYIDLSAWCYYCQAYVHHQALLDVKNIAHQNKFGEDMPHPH

Sequence of Human recombinant HDAC-3/NcoR2 (O15379 whole entry): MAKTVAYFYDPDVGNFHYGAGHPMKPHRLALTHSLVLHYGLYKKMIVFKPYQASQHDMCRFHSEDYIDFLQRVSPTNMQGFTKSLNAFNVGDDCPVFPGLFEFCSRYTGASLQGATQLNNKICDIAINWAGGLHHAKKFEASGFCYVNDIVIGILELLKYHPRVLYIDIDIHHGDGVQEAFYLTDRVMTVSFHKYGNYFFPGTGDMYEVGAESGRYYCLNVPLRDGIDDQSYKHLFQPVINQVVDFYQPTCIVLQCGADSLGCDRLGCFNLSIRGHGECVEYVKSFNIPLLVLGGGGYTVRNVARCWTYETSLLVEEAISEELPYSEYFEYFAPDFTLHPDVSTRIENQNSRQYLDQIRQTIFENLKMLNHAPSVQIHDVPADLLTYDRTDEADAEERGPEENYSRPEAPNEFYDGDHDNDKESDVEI
Sequence of Human recombinant HDAC-3/NcoR2 (Q9Y618 395-489 partner limits assumed): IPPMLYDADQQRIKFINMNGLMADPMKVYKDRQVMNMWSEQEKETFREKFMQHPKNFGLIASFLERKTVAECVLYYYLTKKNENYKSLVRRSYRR

Question: How did the IC50 [1] turn out when `O=C(CCCCCCCN1CCN(C(c2ccccc2)c2ccccc2)CC1)NO` [Compound 8b, 8-(4-(diphenylmethyl)-piperazin-1-yl)-N-hydroxyoctanamide] was run?
Answer: 0.207 ± 0.014 µM

Question: What about the IC50 ([2]; Homo sapiens, MDA-MB-231, 48 h) of the same molecule?
Answer: 5.42 ± 0.77 µM

Question: What about the IC50 ([3]; Homo sapiens, MDA-MB-231, spheres formed 4 d, treated 72 h, MTT) of the same molecule?
Answer: 50 µM

Question: And the “sphere formation and spheres viability” value ([3]; co-culture 50 μM, 4 d in sphere culture conditions)?
Answer: significantly inhibited

Question: And the “% HDAC6 Inhibition at 5 μM” value [4]?
Answer: 97.7 ± 0.2%

Question: What about the inhibition at 5 µM [4] of the same molecule?
Answer: > 90%

Question: What about the IC50 [4] of the same molecule?
Answer: 0.124 ± 0.013 µM

Question: What about the “Selectivity Ratio HDAC1/6” value [4] of the same molecule?
Answer: 3.3

Question: And the “Selectivity Ratio HDAC3/6” value [4]?
Answer: 1.7

Question: And the “Selectivity Ratio HDAC8/6” value [4]?
Answer: 2

Question: Which results are given for `O=C(CCCCCCN1CCN(C(c2ccccc2)c2ccccc2)CC1)NO` [Compound 7b, 7-(4-(diphenylmethyl)-piperazin-1-yl)-N-hydroxyheptanamide]?
Answer: IC50 [1]: 0.267 ± 0.019 µM; IC50 ([2]; Homo sapiens, MDA-MB-231, 48 h): 10.6 ± 1.95 µM; tumor sphere viability ([3]; MTT): did not exhibit significant cytotoxic effects; sphere formation ([3]; co-culture 4 d, at higher concentrations): inhibit sphere formation to some extent; % HDAC6 Inhibition at 5 μM [4]: 97.1 ± 0.8%; inhibition at 5 µM [4]: > 90%; IC50 [4]: 0.096 ± 0.008 µM; Selectivity Ratio HDAC1/6 [4]: 6.4; Selectivity Ratio HDAC3/6 [4]: 2.8; Selectivity Ratio HDAC8/6 [4]: 3.6

Question: What does the source list for `O=C(NO)c1ccc(CN2CCN(C(c3ccccc3)c3ccccc3)CC2)cc1` [Compound 9b, 4-(4-(diphenylmethyl)-piperazin-1-ylmethyl)-N-hydroxy-benzamide]?
Answer: IC50 [1]: 3.47 ± 0.121 µM; IC50 ([2]; 48 h): 38.2 ± 3.01 µM; IC50 ([2]; Homo sapiens, MDA-MB-231, 48 h): 38.1 µM; tumor sphere viability ([3]; MTT): did not exhibit significant cytotoxic effects; % HDAC6 Inhibition at 5 μM [4]: 96.9 ± 0.3%; inhibition at 5 µM [4]: > 90%; IC50 [4]: 0.031 ± 0.004 µM; Selectivity Ratio HDAC1/6 [4]: 47.5; Selectivity Ratio HDAC3/6 [4]: 112 and 111.8; Selectivity Ratio HDAC8/6 [4]: 23
